# Measured values taken from patent US20160375006A1, “USES OF PARALOG-SELECTIVE INHIBITORS OF GSK3 KINASES” (priority 2012, published 2016).
# Like-named read-outs stand apart in the source and are kept apart here.
# Assays:
# BRSK2 = BRSK2 (Homo sapiens, UniProt Q8IWQ3)
# Experimental: (§1) This was completed utilizing one of two assays depending on the kinase being examined.
# (§2) A solution of IMAP binding reagent (IMAP Screening Express kit; Molecular Devices) (60 μL) was added to each well and incubated for 30 minutes.
# (§3) A solution of termination buffer (QuickScout Screening assist MSA; Carna Biosciences) (60 μL) was added to each well. The entire reaction mixture was then applied to a LabChip3000 system (Caliper Life Science) and the product and substrate peptide peaks were separated and quantified.
# (§4) The assay utilized was identical to that of the single point inhibitory activity determination (MSA) but run in dose response. […] A solution of termination buffer (QuickScout Screening assist MSA; Carna Biosciences) (60 μL) was added to each well. The entire reaction mixture was then applied to a LabChip3000 system (Caliper Life Science) and the product and substrate peptide peaks were separated and quantified.
# MAP2K7_Cascade = MAP2K7_Cascade (Homo sapiens, UniProt O14733)
# Experimental: as §1, §2, §3, §4
# CaMK2α = CaMK2α (Homo sapiens, UniProt Q9UQM7)
# Experimental: as §1, §2, §3, §4
# WNK2 = WNK2 (Homo sapiens, UniProt Q9Y3S1)
# Experimental: as §1, §2, §3, §4
# Erk1 = Erk1 (Homo sapiens, UniProt P27361)
# Experimental: as §1, §2, §3
# PDHK2 = PDHK2 (Homo sapiens, UniProt Q15119)
# Experimental: as §1, §2, §3, §4
# AurA/TPX2 = AurA/TPX2 (Homo sapiens, UniProt O14965)
# Experimental: as §1, §2, §3, §4
# EPHA6 = EPHA6 (Homo sapiens, UniProt Q9UF33)
# Experimental: as §1, §2, §3
# EPHB3 = EPHB3 (Homo sapiens, UniProt P54753)
# Experimental: as §1, §2, §3, §4
# MARK2 = MARK2 (Homo sapiens, UniProt Q7KZI7)
# Experimental: as §1, §2, §3, §4
# MINK = MINK (Homo sapiens, UniProt Q8N4C8)
# Experimental: as §1, §2, §3, §4
# CDC2/CycB1 = CDC2/CycB1 (Homo sapiens, UniProt P06493)
# Experimental: as §1, §2, §3, §4
# BRSK1 = BRSK1 (Homo sapiens, UniProt Q8TDC3)
# Experimental: as §1, §2, §3, §4
# NEK9 = NEK9 (Homo sapiens, UniProt Q8TD19)
# Experimental: as §1, §2, §3, §4
# PDK1 = PDK1 (Homo sapiens, UniProt O15530)
# Experimental: as §1, §2, §3, §4
# IRR = IRR (Homo sapiens, UniProt P14616)
# Experimental: as §1, §2, §3, §4
# FLT1 = FLT1 (Homo sapiens, UniProt P17948)
# Experimental: as §1, §2, §3, §4
# HGK = HGK (Homo sapiens, UniProt O95819)
# Experimental: as §2, §3, §4
# CDK2/CycA2 = CDK2/CycA2 (Homo sapiens, UniProt P24941)
# Experimental: as §1, §2, §3, §4
# EGFR(T790M/L858R) = EGFR(T790M/L858R) (Homo sapiens, UniProt P00533, L858R/T790M)
# Experimental: as §1, §2, §3, §4
# IKKε = IKKε (Homo sapiens, UniProt Q14164)
# Experimental: as §1, §2, §3, §4
# MNK2 = MNK2 (Homo sapiens, UniProt Q9HBH9)
# Experimental: as §1, §2, §3
# MARK3 = MARK3 (Homo sapiens, UniProt P27448)
# Experimental: as §1, §2, §3, §4
# PKR = biological target: T1, PKR (Homo sapiens, UniProt P19525); test: Carna kinase panel; format: biochemical
# T1 construct: purchased Carna Biosciences
# Experimental: as §1, §2, §3
# Haspin = Haspin (Homo sapiens, UniProt Q8TF76)
# Experimental: as §1, §2, §3, §4
# FGFR3 = FGFR3 (Homo sapiens, UniProt P22607)
# Experimental: as §2, §3, §4
# MRCKβ = MRCKβ (Homo sapiens, UniProt Q9Y5S2)
# Experimental: as §1, §2, §3, §4
# AMPKα1/β1/γ1 = AMPKα1/β1/γ1 (Homo sapiens, UniProt Q13131)
# Text: as §1
# (§5) The assay utilized was identical to that of the single point inhibitory activity determination (MSA) but run in dose response.
# ITK = ITK (Homo sapiens, UniProt Q08881)
# Experimental: as §1, §2, §3, §4
# MOS_Cascade = MOS_Cascade (Homo sapiens, UniProt P00540)
# Experimental: as §1, §2, §3, §4
# MAPKAPK2 = MAPKAPK2 (Homo sapiens, UniProt P49137)
# Experimental: as §1, §2, §3, §4
# GSK3β = GSK3β (Homo sapiens, UniProt P49841)
# Experimental: as §1, §2, §3, §4
# RSK3 = biological target: T2, RSK3 (Homo sapiens, UniProt Q15349); test: Carna kinase panel; format: biochemical
# T2 construct: purchased Carna Biosciences
# Experimental: as §1, §2, §3
# PAK4 = PAK4 (Homo sapiens, UniProt O96013)
# Experimental: as §1, §2, §3
# TSSK2 = TSSK2 (Homo sapiens, UniProt Q96PF2)
# Experimental: as §1, §2, §3
# HER2 = HER2 (Homo sapiens, UniProt P04626)
# Experimental: as §1, §2, §3, §4
# CaMK2β = CaMK2β (Homo sapiens, UniProt Q13554)
# Experimental: as §1, §2, §3, §4
# CK1γ2 = CK1γ2 (Homo sapiens, UniProt P78368)
# Experimental: as §1, §2, §3, §4
# PHKG2 = PHKG2 (Homo sapiens, UniProt P15735)
# Experimental: as §1, §2, §3
# Text for MAP3K4_Cascade: as §1, §5
# Chain of GSK3β (P49841 whole entry): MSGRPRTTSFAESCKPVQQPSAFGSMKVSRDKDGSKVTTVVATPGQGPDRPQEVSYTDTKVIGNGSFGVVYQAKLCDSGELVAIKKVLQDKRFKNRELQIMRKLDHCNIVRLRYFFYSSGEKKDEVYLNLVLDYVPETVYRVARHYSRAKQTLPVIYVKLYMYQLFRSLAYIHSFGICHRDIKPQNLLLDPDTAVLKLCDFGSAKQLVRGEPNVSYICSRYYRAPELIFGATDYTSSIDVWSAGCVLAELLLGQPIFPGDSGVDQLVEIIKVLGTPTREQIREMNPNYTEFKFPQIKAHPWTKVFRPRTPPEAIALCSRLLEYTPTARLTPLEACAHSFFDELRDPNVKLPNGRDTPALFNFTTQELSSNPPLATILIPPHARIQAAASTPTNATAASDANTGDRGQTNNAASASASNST
# Chain of Erk1 (P27361 whole entry): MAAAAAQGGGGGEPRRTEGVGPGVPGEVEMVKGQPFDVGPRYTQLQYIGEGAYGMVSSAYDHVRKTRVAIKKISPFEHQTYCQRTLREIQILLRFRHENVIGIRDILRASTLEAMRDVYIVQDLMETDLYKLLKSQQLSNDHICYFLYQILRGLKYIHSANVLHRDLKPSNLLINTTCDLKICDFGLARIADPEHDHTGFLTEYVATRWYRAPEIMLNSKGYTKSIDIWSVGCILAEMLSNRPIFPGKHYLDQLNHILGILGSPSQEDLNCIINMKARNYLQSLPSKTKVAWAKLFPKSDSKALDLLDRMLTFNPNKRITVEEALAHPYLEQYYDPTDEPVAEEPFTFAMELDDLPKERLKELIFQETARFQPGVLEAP
# Chain of MOS_Cascade (P00540 whole entry): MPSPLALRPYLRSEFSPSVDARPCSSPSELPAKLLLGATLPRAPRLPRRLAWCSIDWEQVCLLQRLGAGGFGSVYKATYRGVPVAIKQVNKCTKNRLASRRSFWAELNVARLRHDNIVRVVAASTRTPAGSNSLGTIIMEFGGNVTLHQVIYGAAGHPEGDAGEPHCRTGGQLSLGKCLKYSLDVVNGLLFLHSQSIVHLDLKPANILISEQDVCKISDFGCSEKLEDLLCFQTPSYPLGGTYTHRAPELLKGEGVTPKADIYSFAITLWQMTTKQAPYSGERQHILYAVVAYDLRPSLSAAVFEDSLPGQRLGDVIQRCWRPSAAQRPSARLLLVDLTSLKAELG
# Chain of NEK9 (Q8TD19 whole entry): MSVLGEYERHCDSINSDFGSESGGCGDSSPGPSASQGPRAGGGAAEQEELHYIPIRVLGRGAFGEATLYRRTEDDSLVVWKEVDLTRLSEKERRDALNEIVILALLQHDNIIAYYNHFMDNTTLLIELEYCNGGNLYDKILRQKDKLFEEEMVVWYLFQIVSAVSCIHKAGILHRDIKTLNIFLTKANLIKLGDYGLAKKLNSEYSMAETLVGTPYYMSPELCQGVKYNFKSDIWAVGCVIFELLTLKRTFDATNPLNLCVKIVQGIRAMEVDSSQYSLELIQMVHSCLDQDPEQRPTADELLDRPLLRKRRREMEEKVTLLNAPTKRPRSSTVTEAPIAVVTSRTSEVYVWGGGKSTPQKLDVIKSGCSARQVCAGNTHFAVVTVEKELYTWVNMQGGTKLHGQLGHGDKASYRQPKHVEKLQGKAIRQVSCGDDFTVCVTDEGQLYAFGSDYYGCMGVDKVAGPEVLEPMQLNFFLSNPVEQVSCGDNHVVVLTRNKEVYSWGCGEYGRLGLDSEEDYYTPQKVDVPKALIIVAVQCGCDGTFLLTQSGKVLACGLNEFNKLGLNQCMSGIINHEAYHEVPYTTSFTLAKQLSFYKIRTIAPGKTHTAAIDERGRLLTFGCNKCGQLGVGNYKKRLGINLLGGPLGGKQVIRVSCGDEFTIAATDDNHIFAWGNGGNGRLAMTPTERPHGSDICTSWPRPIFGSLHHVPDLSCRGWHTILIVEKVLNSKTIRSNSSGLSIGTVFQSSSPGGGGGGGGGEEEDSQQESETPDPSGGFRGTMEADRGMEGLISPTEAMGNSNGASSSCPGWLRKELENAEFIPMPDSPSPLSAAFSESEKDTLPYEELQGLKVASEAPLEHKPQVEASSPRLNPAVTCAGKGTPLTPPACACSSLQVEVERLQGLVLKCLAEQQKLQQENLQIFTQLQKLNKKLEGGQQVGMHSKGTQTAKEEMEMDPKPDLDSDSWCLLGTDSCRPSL
# Chain of BRSK2 (Q8IWQ3 whole entry): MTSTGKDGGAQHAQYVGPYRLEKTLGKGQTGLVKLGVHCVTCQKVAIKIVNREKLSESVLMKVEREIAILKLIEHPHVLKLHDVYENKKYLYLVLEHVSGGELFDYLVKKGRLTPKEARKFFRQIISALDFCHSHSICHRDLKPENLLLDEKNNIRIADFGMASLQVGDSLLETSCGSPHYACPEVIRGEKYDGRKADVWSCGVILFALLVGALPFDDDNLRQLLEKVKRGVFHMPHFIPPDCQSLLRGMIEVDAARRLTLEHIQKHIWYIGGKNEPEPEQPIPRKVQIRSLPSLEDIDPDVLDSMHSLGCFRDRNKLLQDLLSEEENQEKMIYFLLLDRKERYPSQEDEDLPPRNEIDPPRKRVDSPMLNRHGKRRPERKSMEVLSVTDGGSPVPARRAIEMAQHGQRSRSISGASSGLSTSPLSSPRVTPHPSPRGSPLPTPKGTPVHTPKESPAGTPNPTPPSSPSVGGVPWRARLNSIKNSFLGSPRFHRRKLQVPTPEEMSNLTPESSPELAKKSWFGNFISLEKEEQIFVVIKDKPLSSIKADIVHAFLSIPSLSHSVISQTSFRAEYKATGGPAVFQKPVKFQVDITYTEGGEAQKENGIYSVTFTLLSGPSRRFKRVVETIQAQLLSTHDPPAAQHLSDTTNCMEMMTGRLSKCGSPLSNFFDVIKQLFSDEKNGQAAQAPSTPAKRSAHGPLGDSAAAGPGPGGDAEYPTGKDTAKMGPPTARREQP
# Chain of MNK2 (Q9HBH9 whole entry): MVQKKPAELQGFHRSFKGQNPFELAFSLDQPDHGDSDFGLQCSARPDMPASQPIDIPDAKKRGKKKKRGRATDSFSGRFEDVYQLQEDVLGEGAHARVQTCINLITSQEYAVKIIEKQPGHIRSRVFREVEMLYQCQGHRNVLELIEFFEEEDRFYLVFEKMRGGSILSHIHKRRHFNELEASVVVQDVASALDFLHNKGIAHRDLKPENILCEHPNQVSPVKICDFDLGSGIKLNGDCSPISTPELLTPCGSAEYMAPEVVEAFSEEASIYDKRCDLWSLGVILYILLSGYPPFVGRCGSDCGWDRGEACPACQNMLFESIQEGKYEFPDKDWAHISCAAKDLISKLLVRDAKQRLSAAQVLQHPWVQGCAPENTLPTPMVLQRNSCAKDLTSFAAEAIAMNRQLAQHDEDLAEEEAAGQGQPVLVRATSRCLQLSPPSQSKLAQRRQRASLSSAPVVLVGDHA
# Chain of MINK (Q8N4C8 whole entry): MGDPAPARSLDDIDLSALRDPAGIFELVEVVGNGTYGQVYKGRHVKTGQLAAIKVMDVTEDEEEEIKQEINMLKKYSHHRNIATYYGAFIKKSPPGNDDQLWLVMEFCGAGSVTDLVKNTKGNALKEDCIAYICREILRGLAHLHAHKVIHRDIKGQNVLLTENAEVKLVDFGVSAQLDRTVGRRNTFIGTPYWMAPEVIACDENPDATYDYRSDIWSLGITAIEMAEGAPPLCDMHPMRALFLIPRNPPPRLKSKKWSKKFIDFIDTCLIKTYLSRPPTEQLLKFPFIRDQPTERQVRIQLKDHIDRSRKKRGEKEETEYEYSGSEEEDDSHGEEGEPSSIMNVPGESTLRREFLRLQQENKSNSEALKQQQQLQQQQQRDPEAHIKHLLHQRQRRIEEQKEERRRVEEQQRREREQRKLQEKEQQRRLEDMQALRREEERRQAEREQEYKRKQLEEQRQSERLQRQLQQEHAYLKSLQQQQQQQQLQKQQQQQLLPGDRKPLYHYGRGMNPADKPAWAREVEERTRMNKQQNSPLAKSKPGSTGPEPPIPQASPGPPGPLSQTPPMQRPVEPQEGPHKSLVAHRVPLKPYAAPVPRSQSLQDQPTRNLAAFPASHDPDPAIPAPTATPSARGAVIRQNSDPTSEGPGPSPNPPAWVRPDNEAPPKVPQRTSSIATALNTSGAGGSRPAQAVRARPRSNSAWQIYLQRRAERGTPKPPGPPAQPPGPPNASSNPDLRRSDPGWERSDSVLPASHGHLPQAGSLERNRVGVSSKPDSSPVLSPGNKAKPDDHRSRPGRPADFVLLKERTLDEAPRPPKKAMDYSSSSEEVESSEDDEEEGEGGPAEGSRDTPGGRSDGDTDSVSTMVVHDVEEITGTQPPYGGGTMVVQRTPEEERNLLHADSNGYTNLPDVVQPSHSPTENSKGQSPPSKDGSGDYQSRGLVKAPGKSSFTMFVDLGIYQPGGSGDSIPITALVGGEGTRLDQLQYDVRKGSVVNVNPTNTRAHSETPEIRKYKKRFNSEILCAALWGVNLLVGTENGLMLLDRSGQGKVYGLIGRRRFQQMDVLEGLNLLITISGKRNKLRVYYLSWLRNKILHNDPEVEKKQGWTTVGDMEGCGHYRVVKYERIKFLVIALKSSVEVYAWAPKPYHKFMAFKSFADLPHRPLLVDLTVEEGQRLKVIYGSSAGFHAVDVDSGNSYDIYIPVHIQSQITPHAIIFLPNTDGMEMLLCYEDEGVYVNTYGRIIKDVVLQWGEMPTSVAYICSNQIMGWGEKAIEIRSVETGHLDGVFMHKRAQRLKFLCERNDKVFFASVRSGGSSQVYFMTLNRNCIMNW
# Chain of TSSK2 (Q96PF2 whole entry): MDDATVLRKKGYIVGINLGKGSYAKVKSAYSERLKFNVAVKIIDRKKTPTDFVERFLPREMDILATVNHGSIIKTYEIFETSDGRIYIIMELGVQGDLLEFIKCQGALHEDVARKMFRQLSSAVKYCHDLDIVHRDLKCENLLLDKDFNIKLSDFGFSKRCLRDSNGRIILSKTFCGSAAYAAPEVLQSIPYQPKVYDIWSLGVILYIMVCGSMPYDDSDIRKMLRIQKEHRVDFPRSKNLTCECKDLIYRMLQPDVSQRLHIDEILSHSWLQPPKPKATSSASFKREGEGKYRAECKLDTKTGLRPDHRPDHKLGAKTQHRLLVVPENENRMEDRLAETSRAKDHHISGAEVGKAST
structure (smiles),measurement,setting,value
CC(C)(C)Cc1[nH]nc2c1[C@](C)(c1ccccc1)C1=C(CC(C)(C)CC1=O)N2 [BRD3731],% Inhibition 10 μM,BRSK2; 10 μM,−2.9%
same,% Inhibition 10 μM,MAP2K7_Cascade; 10 μM,3.0%
same,% Inhibition 10 μM,CaMK2α; 10 μM,−4.3%
same,% Inhibition 10 μM,WNK2; 10 μM,1.6%
same,% Inhibition 10 μM,Erk1; 10 μM,3.4%
same,% Inhibition 10 μM,PDHK2; 10 μM,12.7%
same,% Inhibition 10 μM,AurA/TPX2; 10 μM,3.8%
same,% Inhibition 10 μM,EPHA6; 10 μM,9.6%
same,% Inhibition 10 μM,EPHB3; 10 μM,0.1%
same,% Inhibition 10 μM,MARK2; 10 μM,16.5%
same,% Inhibition 10 μM,MINK; 10 μM,2.2%
same,% Inhibition 10 μM,CDC2/CycB1; 10 μM,27.8%
same,% Inhibition 10 μM,BRSK1; 10 μM,7.9%
same,% Inhibition 10 μM,NEK9; 10 μM,2.9%
same,% Inhibition 10 μM,PDK1; 10 μM,2.0%
same,% Inhibition 10 μM,IRR; 10 μM,6.2%
same,% Inhibition 10 μM,FLT1; 10 μM,3.2%
same,% Inhibition 10 μM,HGK; 10 μM,−3.8%
same,IC50,CDK2/CycA2; CDK2/CycA2,> 10000 nM
same,% Inhibition 10 μM,"CDK2/CycA2; CDK2/CycA2, 10 μM",36.3%
same,Fold Selectivity,CDK2/CycA2; IC50 CDK2/CycA2 / IC50 GSK3β,>370 fold
same,% Inhibition 10 μM,EGFR(T790M/L858R); 10 μM,−4.0%
same,% Inhibition 10 μM,IKKε; 10 μM,−1.4%
same,% Inhibition 10 μM,MNK2; 10 μM,−5.6%
same,% Inhibition 10 μM,MARK3; 10 μM,−2.1%
same,% Inhibition 10 μM,PKR; 10 μM,3.1%
same,% Inhibition 10 μM,MAP3K4_Cascade; 10 μM,12.4%
same,% Inhibition 10 μM,Haspin; 10 μM,5.3%
same,% Inhibition 10 μM,FGFR3; 10 μM,−0.7%
same,% Inhibition 10 μM,MRCKβ; 10 μM,−0.7%
same,% Inhibition 10 μM,AMPKα1/β1/γ1; 10 μM,11.2%
same,% Inhibition 10 μM,ITK; 10 μM,2.8%
same,% Inhibition 10 μM,MOS_Cascade; 10 μM,−9.5%
same,% Inhibition 10 μM,MAPKAPK2; 10 μM,22.4%
same,% Inhibition 10 μM,GSK3β,100.7%
same,IC50,GSK3β,27 nM
same,% Inhibition 10 μM,RSK3; 10 μM,35.5%
same,% Inhibition 10 μM,PAK4; 10 μM,0.6%
same,% Inhibition 10 μM,TSSK2; 10 μM,3.8%
same,% Inhibition 10 μM,HER2; 10 μM,3.8%
same,% Inhibition 10 μM,CaMK2β; 10 μM,0.3%
same,% Inhibition 10 μM,CK1γ2; 10 μM,3.6%
same,% Inhibition 10 μM,PHKG2; 10 μM,6.0%
CC[C@@]1(c2ccccc2)C2=C(CC(C)(C)CC2=O)Nc2n[nH]cc21 [BRD0705],% Inhibition at 10 μM,BRSK2,1.8%
same,% Inhibition at 10 μM,MAP2K7_Cascade,−0.6%
same,% Inhibition at 10 μM,CaMK2α,−8.6%
same,% Inhibition at 10 μM,WNK2,−5.0%
same,% Inhibition at 10 μM,Erk1,−9.8%
same,% Inhibition at 10 μM,PDHK2,−0.5%
same,% Inhibition at 10 μM,AurA/TPX2,−5.3%
same,% Inhibition at 10 μM,EPHA6,7.4%
same,% Inhibition at 10 μM,EPHB3,−1.3%
same,% Inhibition at 10 μM,MARK2,−6.2%
same,% Inhibition at 10 μM,MINK,2.4%
same,% Inhibition at 10 μM,CDC2/CycB1,17.2%
same,% Inhibition at 10 μM,BRSK1,−1.6%
same,% Inhibition at 10 μM,NEK9,3.5%
same,% Inhibition at 10 μM,PDK1,−6.7%
same,% Inhibition at 10 μM,IRR,4.0%
same,% Inhibition at 10 μM,FLT1,−2.6%
same,% Inhibition at 10 μM,HGK,14.9%
same,% Inhibition at 10 μM,CDK2/CycA2; CDK2/CycA2,65.3%
same,IC50,CDK2/CycA2; read-out: IC50 CDK2/CycA2,6870 nM
same,% Inhibition at 10 μM,EGFR(T790M/L858R),−4.0%
same,% Inhibition at 10 μM,IKKε,−4.5%
same,% Inhibition at 10 μM,MNK2,−5.9%
same,% Inhibition at 10 μM,MARK3,−5.3%
same,% Inhibition at 10 μM,PKR,2.0%
same,% Inhibition at 10 μM,MAP3K4_Cascade,11.6%
same,% Inhibition at 10 μM,Haspin,−5.1%
same,% Inhibition at 10 μM,FGFR3,−2.8%
same,% Inhibition at 10 μM,MRCKβ,−9.1%
same,% Inhibition at 10 μM,AMPKα1/β1/γ1,−4.1%
same,% Inhibition at 10 μM,ITK,0.3%
same,% Inhibition at 10 μM,MOS_Cascade,−1.0%
same,% Inhibition at 10 μM,MAPKAPK2,−22.4%
same,% Inhibition at 10 μM,GSK3β,96.5%
same,IC50,GSK3β; read-out: IC50 GSK3β,488 nM
same,% Inhibition at 10 μM,RSK3,−7.9%
same,% Inhibition at 10 μM,PAK4,33.8%
same,% Inhibition at 10 μM,TSSK2,−3.4%
same,% Inhibition at 10 μM,HER2,−11.1%
same,% Inhibition at 10 μM,CaMK2β,−9.0%
same,% Inhibition at 10 μM,CK1γ2,−11.8%
same,% Inhibition at 10 μM,PHKG2,−5.8%
